In PubChem BioAssay (NCI):
Where “and” joins values, the source holds several entries; their conditions need not be identical. Equal values may be shown once.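 Tested at 5 concentrations; 48 h exposure; 96-well plates; endpoints linearly interpolated, else capped at highest concentration. GI50 is the concentration that inhibits growth by half. TGI is the concentration that stops growth completely.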

Legend:
Test in all cases: inhibition of tumour cell growth, NCI panel, 48 h
K-562 leukemia = system: K-562 leukemia
BT-549 breast = system: BT-549 breast
SK-MEL-5 melanoma = system: SK-MEL-5 melanoma
SF-539 CNS = system: SF-539 CNS
NCI-H460 lung = system: NCI-H460 lung
M14 melanoma = system: M14 melanoma
HS 578T breast = system: HS 578T breast
NCI-H226 lung = system: NCI-H226 lung
SNB-75 CNS = system: SNB-75 CNS
CAKI-1 renal = system: CAKI-1 renal

CCCCCC(=O)OC[n+]1ccc(-c2c(COC(=O)NC(C)C)c(COC(=O)NC(C)C)c3n2CCC3)cc1
TGI (K-562 leukemia): > 100 µM
TGI (BT-549 breast): > 100 µM
TGI (SK-MEL-5 melanoma): > 100 µM
TGI (SF-539 CNS): > 100 µM
TGI (NCI-H460 lung): > 100 µM
TGI (M14 melanoma): > 100 µM
TGI (HS 578T breast): > 100 µM
TGI (NCI-H226 lung): > 100 µM
TGI (SNB-75 CNS): > 100 µM
TGI (CAKI-1 renal): > 100 µM

CC1(C)C/C=C\CCC(O)C(O)CCC(C)(C)C1=O (stereo not given)
TGI (K-562 leukemia): > 100 µM
TGI (BT-549 breast): > 100 µM
TGI (SK-MEL-5 melanoma): > 100 µM
TGI (SF-539 CNS): > 100 µM
TGI (NCI-H460 lung): > 100 µM
TGI (HS 578T breast): > 100 µM
TGI (NCI-H226 lung): > 100 µM
TGI (SNB-75 CNS): > 100 µM
TGI (CAKI-1 renal): > 100 µM

COc1ccc(-c2cc(-c3ccncc3)nc(N)c2-c2ccc(F)cc2)cc1
TGI (K-562 leukemia): > 100 µM
TGI (BT-549 breast): > 100 µM
TGI (SK-MEL-5 melanoma): > 100 µM
TGI (SF-539 CNS): 46.8 µM
TGI (NCI-H460 lung): 57.6 µM
TGI (M14 melanoma): > 100 µM
TGI (HS 578T breast): > 100 µM
TGI (NCI-H226 lung): > 100 µM
TGI (SNB-75 CNS): > 100 µM
TGI (CAKI-1 renal): > 100 µM

N#C[C@H](c1nc2ccccc2[nH]1)c1nc2ccccc2nc1Cl
TGI (K-562 leukemia): > 100 µM
TGI (BT-549 breast): > 47.8 µM
TGI (SK-MEL-5 melanoma): 36 µM
TGI (SF-539 CNS): > 100 µM
TGI (NCI-H460 lung): > 53.8 µM
TGI (M14 melanoma): > 50.3 µM
TGI (HS 578T breast): > 100 µM
TGI (NCI-H226 lung): 64.7 µM
TGI (SNB-75 CNS): 41.1 µM
TGI (CAKI-1 renal): 15.3 µM

ClC1(Cl)C2CCOC21n1cnc2ccccc21 (stereo not given)
TGI (K-562 leukemia): > 100 µM
TGI (BT-549 breast): > 100 µM
TGI (SK-MEL-5 melanoma): > 100 µM
TGI (SF-539 CNS): > 100 µM
TGI (M14 melanoma): > 100 µM
TGI (HS 578T breast): > 100 µM
TGI (NCI-H226 lung): > 100 µM
TGI (SNB-75 CNS): > 100 µM
TGI (CAKI-1 renal): > 100 µM

O=C1CSC2(CC(/C=C/c3ccccc3[N+](=O)[O-])=NN2c2cccc(S(=O)(=O)O)c2)N1c1nc2ccccc2s1 (stereo not given)
TGI (K-562 leukemia): 63.3 µM
TGI (BT-549 breast): 33.1 µM
TGI (SK-MEL-5 melanoma): > 75 µM
TGI (SF-539 CNS): > 75 µM
TGI (NCI-H460 lung): 52.7 µM
TGI (M14 melanoma): 60.7 µM
TGI (HS 578T breast): > 75 µM
TGI (NCI-H226 lung): 44.1 µM
TGI (SNB-75 CNS): 28.8 µM
TGI (CAKI-1 renal): > 75 µM

O=C1CN2CCN(CC2)CC(=O)Nc2ccc(cc2)S(=O)(=O)c2ccc(cc2)NC(=O)CN2CCN(CC2)CC(=O)Nc2ccc(cc2)S(=O)(=O)c2ccc(cc2)N1
TGI (K-562 leukemia): > 100 µM
TGI (BT-549 breast): > 87.9 µM
TGI (SK-MEL-5 melanoma): > 100 µM
TGI (SF-539 CNS): 49.2 µM
TGI (NCI-H460 lung): 38.4 µM
TGI (M14 melanoma): > 78.6 µM
TGI (HS 578T breast): > 100 µM
TGI (NCI-H226 lung): > 100 µM
TGI (SNB-75 CNS): > 100 µM
TGI (CAKI-1 renal): > 100 µM

CSc1c(C#N)c(=O)n(N)c2n[nH]c(C)c12
TGI (K-562 leukemia): > 100 µM
TGI (BT-549 breast): > 100 µM
TGI (SK-MEL-5 melanoma): > 100 µM
TGI (SF-539 CNS): > 100 µM
TGI (NCI-H460 lung): > 100 µM
TGI (HS 578T breast): > 100 µM
TGI (NCI-H226 lung): > 100 µM
TGI (SNB-75 CNS): > 100 µM
TGI (CAKI-1 renal): > 100 µM

CCOC(=O)C1=CN(Cc2ccccc2)C2ON=C(c3ccc(Cl)cc3)C2C1 (stereo not given)
TGI (K-562 leukemia): > 100 µM
TGI (BT-549 breast): > 56.4 µM
TGI (SK-MEL-5 melanoma): > 65 µM
TGI (SF-539 CNS): > 68.2 µM
TGI (NCI-H460 lung): > 65 µM
TGI (M14 melanoma): > 66.9 µM
TGI (HS 578T breast): 21.7 µM
TGI (NCI-H226 lung): > 74.3 µM
TGI (SNB-75 CNS): > 72.5 µM
TGI (CAKI-1 renal): > 85.1 µM

O=C1N(c2ccccc2)N=C2c3ccncc3C3=NN(c4ccccc4)C(=O)C123 (stereo not given)
TGI (K-562 leukemia): > 100 µM
TGI (BT-549 breast): > 100 µM
TGI (SK-MEL-5 melanoma): > 47 µM
TGI (SF-539 CNS): > 46.8 µM
TGI (NCI-H460 lung): > 100 µM
TGI (M14 melanoma): > 100 µM
TGI (HS 578T breast): > 100 µM
TGI (NCI-H226 lung): > 100 µM
TGI (SNB-75 CNS): > 100 µM
TGI (CAKI-1 renal): > 100 µM

O=c1oc2ccc([N+](=O)[O-])cc2cc1-c1csc(-c2ccccc2)n1
TGI (K-562 leukemia): > 100 µM
TGI (BT-549 breast): > 100 µM
TGI (SK-MEL-5 melanoma): > 100 µM
TGI (SF-539 CNS): > 100 µM
TGI (NCI-H460 lung): > 100 µM
TGI (M14 melanoma): > 100 µM
TGI (HS 578T breast): > 100 µM
TGI (NCI-H226 lung): > 100 µM
TGI (SNB-75 CNS): > 100 µM
TGI (CAKI-1 renal): > 100 µM

CNC(=S)c1nnsc1N
TGI (K-562 leukemia): > 100 µM
TGI (BT-549 breast): > 100 µM
TGI (SK-MEL-5 melanoma): > 100 µM
TGI (SF-539 CNS): > 100 µM
TGI (NCI-H460 lung): 41.5 µM
TGI (M14 melanoma): > 100 µM
TGI (HS 578T breast): > 100 µM
TGI (NCI-H226 lung): > 100 µM
TGI (SNB-75 CNS): > 100 µM
TGI (CAKI-1 renal): > 100 µM

CCOC(=O)CCNC(=O)c1cc(C)cc2c1Oc1c(cc(C)cc1C(=O)NCCC(=O)OCC)S2
TGI (K-562 leukemia): > 100 µM
TGI (BT-549 breast): > 100 µM
TGI (SK-MEL-5 melanoma): > 100 µM
TGI (SF-539 CNS): > 100 µM
TGI (M14 melanoma): > 100 µM
TGI (HS 578T breast): > 100 µM
TGI (NCI-H226 lung): > 100 µM
TGI (SNB-75 CNS): 78.9 µM
TGI (CAKI-1 renal): > 100 µM

O=[N+]([O-])C(=C(\Cl)NCCO)/C(Cl)=C(/Cl)Br
TGI (K-562 leukemia): 2.97 µM
TGI (BT-549 breast): 4.2 µM
TGI (SK-MEL-5 melanoma): 7.3 µM
TGI (SF-539 CNS): 6.15 µM
TGI (NCI-H460 lung): 10.8 µM
TGI (M14 melanoma): 3.68 µM
TGI (HS 578T breast): 28 µM
TGI (NCI-H226 lung): 17.7 µM
TGI (SNB-75 CNS): 9.08 µM
TGI (CAKI-1 renal): 1.85 µM

COc1ccc(-c2c(C#N)c(N)n(C3OC(COC(C)=O)C(OC(C)=O)C(OC(C)=O)C3OC(C)=O)c(=S)c2C#N)cc1 (stereo not given)
TGI (BT-549 breast): 89.3 µM and 72 µM
TGI (SK-MEL-5 melanoma): > 100 µM and 56.4 µM
TGI (SF-539 CNS): 67.5 µM and > 100 µM
TGI (NCI-H460 lung): > 100 µM
GI50 (M14 melanoma): > 100 µM and 28.4 µM
TGI (M14 melanoma): > 100 µM
TGI (HS 578T breast): 83 µM and > 100 µM
TGI (NCI-H226 lung): > 100 µM
TGI (SNB-75 CNS): 63.4 µM and 50.9 µM
TGI (CAKI-1 renal): > 100 µM

CC1=NN(c2cccc(S(=O)(=O)O)c2)C2(C1)SCC(=O)N2c1nc2ccccc2s1 (stereo not given)
TGI (K-562 leukemia): > 100 µM
TGI (BT-549 breast): > 100 µM
TGI (SK-MEL-5 melanoma): > 100 µM
TGI (SF-539 CNS): > 100 µM
TGI (NCI-H460 lung): > 100 µM
TGI (M14 melanoma): > 100 µM
TGI (HS 578T breast): > 100 µM
TGI (NCI-H226 lung): > 100 µM
TGI (SNB-75 CNS): > 100 µM
TGI (CAKI-1 renal): > 100 µM

CC1(C)CC(=O)C(/C=N/c2nc(-c3cccc([N+](=O)[O-])c3)cs2)=C(O)C1
TGI (K-562 leukemia): 52.6 µM
TGI (BT-549 breast): 54 µM
TGI (SF-539 CNS): 45.6 µM
TGI (NCI-H460 lung): 27.8 µM
TGI (M14 melanoma): 38.2 µM
TGI (HS 578T breast): 62.4 µM
TGI (NCI-H226 lung): 36.5 µM
TGI (SNB-75 CNS): 59.9 µM
TGI (CAKI-1 renal): 23.4 µM
